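Method: 48-hour compound exposure of cells in 96-well plates, five concentrations, linear interpolation of endpoints. GI50 = concentration required for 50% inhibition of growth. At the TGI there is no net growth.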
Experiments:
Experiment in all cases: growth of human tumour cells (NCI), 48 h
786-0 renal = test system: 786-0 renal
A498 renal = test system: A498 renal
A549 NSCLC = test system: A549 NSCLC
ACHN renal = test system: ACHN renal
BT-549 breast = test system: BT-549 breast
CAKI-1 renal = test system: CAKI-1 renal
CCRF-CEM leukemia = test system: CCRF-CEM leukemia
COLO 205 colon = test system: COLO 205 colon
DU-145 prostate = test system: DU-145 prostate
EKVX NSCLC = test system: EKVX NSCLC
HCC-2998 colon = test system: HCC-2998 colon
HCT-116 colon = test system: HCT-116 colon
HCT-15 colon = test system: HCT-15 colon
HL-60(TB) leukemia = test system: HL-60(TB) leukemia
HOP-62 NSCLC = test system: HOP-62 NSCLC
HOP-92 NSCLC = test system: HOP-92 NSCLC
HS 578T breast = test system: HS 578T breast
HT29 colon = test system: HT29 colon
IGROV1 ovarian = test system: IGROV1 ovarian
K-562 leukemia = test system: K-562 leukemia
KM12 colon = test system: KM12 colon
LOX IMVI melanoma = test system: LOX IMVI melanoma
M14 melanoma = test system: M14 melanoma
MALME-3M melanoma = test system: MALME-3M melanoma
MCF7 breast = test system: MCF7 breast
MDA-MB-231 breast = test system: MDA-MB-231 breast
MDA-MB-435 = test system: MDA-MB-435
MOLT-4 leukemia = test system: MOLT-4 leukemia
NCI-H226 lung = test system: NCI-H226 lung
NCI-H23 lung = test system: NCI-H23 lung
NCI-H460 lung = test system: NCI-H460 lung
NCI-H522 lung = test system: NCI-H522 lung
NCI/ADR-RES ovarian = test system: NCI/ADR-RES ovarian
OVCAR-3 ovarian = test system: OVCAR-3 ovarian
OVCAR-4 ovarian = test system: OVCAR-4 ovarian
OVCAR-5 ovarian = test system: OVCAR-5 ovarian
OVCAR-8 ovarian = test system: OVCAR-8 ovarian
PC-3 prostate = test system: PC-3 prostate
RPMI-8226 leukemia = test system: RPMI-8226 leukemia
RXF 393 renal = test system: RXF 393 renal
SF-268 CNS = test system: SF-268 CNS
SF-295 CNS = test system: SF-295 CNS
SF-539 CNS = test system: SF-539 CNS
SK-MEL-2 melanoma = test system: SK-MEL-2 melanoma
SK-MEL-28 melanoma = test system: SK-MEL-28 melanoma
SK-MEL-5 melanoma = test system: SK-MEL-5 melanoma
SK-OV-3 ovarian = test system: SK-OV-3 ovarian
SN12C renal = test system: SN12C renal
SNB-19 CNS = test system: SNB-19 CNS
SNB-75 CNS = test system: SNB-75 CNS
SR leukemia = test system: SR leukemia
SW-620 colon = test system: SW-620 colon
T-47D breast = test system: T-47D breast
TK-10 renal = test system: TK-10 renal
U251 CNS = test system: U251 CNS
UACC-257 melanoma = test system: UACC-257 melanoma
UACC-62 melanoma = test system: UACC-62 melanoma
UO-31 renal = test system: UO-31 renal

`Clc1ccc(/C=C2\CCCC3C2=Nc2ccccc2NC3c2ccc(Cl)cc2)cc1` (stereo unspecified) gave a GI50 (786-0 renal) of 3.48 µM, a TGI (786-0 renal) of 16.2 µM and a GI50 (A498 renal) of 2.15 µM. It also gave a TGI (A498 renal) of 5.79 µM, a GI50 (A549 NSCLC) of 2.88 µM and a TGI (A549 NSCLC) of 9.11 µM. The GI50 (ACHN renal) was 4.42 µM, the TGI (ACHN renal) was greater than 25.4 µM and the GI50 (BT-549 breast) was 2.24 µM. For the same compound, the TGI (BT-549 breast) was 6.81 µM, the GI50 (CAKI-1 renal) was 3.95 µM and the TGI (CAKI-1 renal) was 69.9 µM. For the same compound, the GI50 (CCRF-CEM leukemia) was 3.18 µM, the TGI (CCRF-CEM leukemia) was greater than 35.9 µM and the GI50 (COLO 205 colon) was 3.11 µM. The TGI (COLO 205 colon) was 8.2 µM, the GI50 (DU-145 prostate) was 4.39 µM and the TGI (DU-145 prostate) was 23.9 µM. It also gave a GI50 (EKVX NSCLC) of 4.07 µM, a TGI (EKVX NSCLC) of 52.5 µM and a GI50 (HCC-2998 colon) of 1.92 µM. It also gave a TGI (HCC-2998 colon) of 3.55 µM, a GI50 (HCT-116 colon) of 1.59 µM and a TGI (HCT-116 colon) of 3.02 µM. For the same compound, the GI50 (HCT-15 colon) was 2.59 µM, the TGI (HCT-15 colon) was 7.47 µM and the GI50 (HL-60(TB) leukemia) was 4.85 µM. The TGI (HL-60(TB) leukemia) was 33 µM, the GI50 (HOP-62 NSCLC) was 3.86 µM and the TGI (HOP-62 NSCLC) was 22.1 µM. For the same compound, the GI50 (HOP-92 NSCLC) was 7.99 µM, the TGI (HOP-92 NSCLC) was 37.9 µM and the GI50 (HS 578T breast) was 4.04 µM. The TGI (HS 578T breast) was greater than 27.7 µM, the GI50 (HT29 colon) was 2.79 µM and the TGI (HT29 colon) was 7.95 µM. It also gave a GI50 (IGROV1 ovarian) of 3.3 µM, a TGI (IGROV1 ovarian) of 10.2 µM and a GI50 (K-562 leukemia) of 3.91 µM. The TGI (K-562 leukemia) was 27.8 µM, the GI50 (KM12 colon) was 2.02 µM and the TGI (KM12 colon) was 3.99 µM. For the same compound, the GI50 (LOX IMVI melanoma) was 1.74 µM, the TGI (LOX IMVI melanoma) was 3.18 µM and the GI50 (M14 melanoma) was 2.07 µM. It also gave a TGI (M14 melanoma) of 5.19 µM, a GI50 (MALME-3M melanoma) of 16.8 µM and a TGI (MALME-3M melanoma) of 49.2 µM. The GI50 (MCF7 breast) was 2.92 µM, the TGI (MCF7 breast) was greater than 34 µM and the GI50 (MDA-MB-231 breast) was 6.99 µM. For the same compound, the TGI (MDA-MB-231 breast) was 41.7 µM, the GI50 (MDA-MB-435) was 2.87 µM and the TGI (MDA-MB-435) was greater than 27.6 µM. The GI50 (MOLT-4 leukemia) was 4.52 µM, the TGI (MOLT-4 leukemia) was 30.4 µM and the GI50 (NCI-H226 lung) was 1.91 µM. For the same compound, the TGI (NCI-H226 lung) was 4.19 µM, the GI50 (NCI-H23 lung) was 3.43 µM and the TGI (NCI-H23 lung) was 15.7 µM. The GI50 (NCI-H460 lung) was 4.47 µM, the TGI (NCI-H460 lung) was 16.4 µM and the GI50 (NCI-H522 lung) was 11.6 µM. For the same compound, the TGI (NCI-H522 lung) was 28.5 µM, the GI50 (NCI/ADR-RES ovarian) was 4.66 µM and the TGI (NCI/ADR-RES ovarian) was 52.3 µM. The GI50 (OVCAR-3 ovarian) was 3.13 µM, the TGI (OVCAR-3 ovarian) was 9.12 µM and the GI50 (OVCAR-4 ovarian) was 3.77 µM. It also gave a TGI (OVCAR-4 ovarian) greater than 52.7 µM, a GI50 (OVCAR-5 ovarian) of 8.63 µM and a TGI (OVCAR-5 ovarian) of 22.3 µM. For the same compound, the GI50 (OVCAR-8 ovarian) was 2.75 µM, the TGI (OVCAR-8 ovarian) was 8.31 µM and the GI50 (PC-3 prostate) was 4.45 µM. The TGI (PC-3 prostate) was greater than 41.5 µM, the GI50 (RPMI-8226 leukemia) was 1.85 µM and the TGI (RPMI-8226 leukemia) was 5.13 µM. It also gave a GI50 (RXF 393 renal) of 1.81 µM, a TGI (RXF 393 renal) of 3.47 µM and a GI50 (SF-268 CNS) of 4.05 µM. It also gave a TGI (SF-268 CNS) greater than 77.7 µM, a GI50 (SF-295 CNS) of 2.71 µM and a TGI (SF-295 CNS) of 8.46 µM. It also gave a GI50 (SF-539 CNS) of 4.75 µM, a TGI (SF-539 CNS) of 47.4 µM and a GI50 (SK-MEL-2 melanoma) of 31.3 µM. It also gave a TGI (SK-MEL-2 melanoma) greater than 64.8 µM, a GI50 (SK-MEL-28 melanoma) of 7.15 µM and a TGI (SK-MEL-28 melanoma) of 28.4 µM. For the same compound, the GI50 (SK-MEL-5 melanoma) was 2.91 µM, the TGI (SK-MEL-5 melanoma) was 7.19 µM and the GI50 (SK-OV-3 ovarian) was 7.49 µM. The TGI (SK-OV-3 ovarian) was greater than 100 µM, the GI50 (SN12C renal) was 6.81 µM and the TGI (SN12C renal) was 34.2 µM. It also gave a GI50 (SNB-19 CNS) of 7.01 µM, a TGI (SNB-19 CNS) greater than 100 µM and a GI50 (SNB-75 CNS) of 12.3 µM. For the same compound, the TGI (SNB-75 CNS) was 57.5 µM, the GI50 (SR leukemia) was 2.6 µM and the TGI (SR leukemia) was 6.64 µM. For the same compound, the GI50 (SW-620 colon) was 2.96 µM, the TGI (SW-620 colon) was 10.6 µM and the GI50 (T-47D breast) was 6.27 µM. It also gave a TGI (T-47D breast) greater than 87.9 µM, a GI50 (TK-10 renal) of 11 µM and a TGI (TK-10 renal) greater than 58.5 µM. It also gave a GI50 (U251 CNS) of 2.05 µM, a TGI (U251 CNS) of 4.71 µM and a GI50 (UACC-257 melanoma) of 2.14 µM. For the same compound, the TGI (UACC-257 melanoma) was 5.88 µM, the GI50 (UACC-62 melanoma) was 6.7 µM and the TGI (UACC-62 melanoma) was 25.4 µM. The GI50 (UO-31 renal) was 3.15 µM and the TGI (UO-31 renal) was 12.5 µM.

Reference: PubChem BioAssay (NCI)
